# System: ddY-strain male mice
# Assay: Acute Toxicity Test (minimum lethal dose, oral)
# Assay type: in vivo
# Settings: seven days after administration
# Method: Test compounds were orally administered to groups of ddY-strain male mice weighing 20±1 g, each group consisting of three mice. Seven days after the administration, minimum lethal dose (MLD) of each compound was determined by observing the mortality.
row,SMILES,MLD (minimum lethal dose) [mg/kg]
1,"CCCn1c(=O)c2c(nc(/C=C/c3ccc(OCC)c(OCC)c3)n2C)n(CCC)c1=O [Compound 55, (E)-8-(3,4-Diethoxystyryl)-7-methyl-1,3-dipropylxanthine]",> 100
2,"CCCn1c(=O)c2[nH]c(/C=C/c3ccc(OC)c(Br)c3)nc2n(CCC)c1=O [Compound 56, (E)-8-(3-Bromo-4-methoxystyryl)-1,3-dipropylxanthine]",> 100
3,"CCCn1c(=O)c2c(nc(/C=C/c3ccc(OC)c(Br)c3)n2C)n(CCC)c1=O [Compound 57, (E)-8-(3-Bromo-4-methoxystyryl)-7-methyl-1,3-dipropylxanthine]",> 100
4,"CCCn1c(=O)c2[nH]c(/C=C/c3cc(OC)c(OC)cc3Br)nc2n(CCC)c1=O [Compound 58, (E)-8-(2-Bromo-4,5-dimethoxystyryl)-1,3-dipropylxanthine]",> 300
5,"CCCn1c(=O)c2c(nc(/C=C/c3cc(OC)c(OC)cc3Br)n2C)n(CCC)c1=O [Compound 59, (E)-8-(2-Bromo-4,5-dimethoxystyryl)-7-methyl-1,3-dipropylxanthine]",> 300
6,"CCCn1c(=O)c2[nH]c(/C=C/c3cc(Br)c(OC)c(OC)c3)nc2n(CCC)c1=O [Compound 60, (E)-8-(3-Bromo-4,5-dimethoxystyryl)-1,3-dipropylxanthine]",> 300
7,"CCCn1c(=O)c2c(nc(/C=C/c3cc(Br)c(OC)c(OC)c3)n2C)n(CCC)c1=O [Compound 61, (E)-8-(3-Bromo-4,5-dimethoxystyryl)-7-methyl-1,3-dipropylxanthine]",> 100
8,"CCCn1c(=O)c2[nH]c(/C=C/c3ccc(OC)c4ccccc34)nc2n(CCC)c1=O [Compound 62, (E)-8-[2-(4-Methoxynaphthyl)vinyl]-1,3-dipropylxanthine]",> 100
9,"CCCn1c(=O)c2c(nc(/C=C/c3ccc(OC)c4ccccc34)n2C)n(CCC)c1=O [Compound 63, (E)-8-[2-(4-Methoxynaphthyl)vinyl]-7-methyl-1,3-dipropylxanthine]",> 300
10,"CCCn1c(=O)c2c(nc(/C=C/c3ccc(OC)c(O)c3)n2C)n(CCC)c1=O [Compound 64, (E)-8-(3-Hydroxy-4-methoxystyryl)-7-methyl-1,3-dipropylxanthine]",> 100
11,"CCCn1c(=O)c2c(nc(/C=C\c3ccc(OC)c(OC)c3)n2C)n(CCC)c1=O [Compound 65, (Z)-8-(3,4-Dimethoxystyryl)-7-methyl-1,3-dipropylxanthine]",> 300
12,"CCCn1c(=O)c2c(nc(/C=C/c3ccc(OC)c(OC)c3)n2CC)n(CCC)c1=O [Compound 66, (E)-8-(3,4-Dimethoxystyryl)-7-ethyl-1,3-dipropylxanthine]",> 300
13,"C#CCn1c(/C=C/c2ccc(OC)c(OC)c2)nc2c1c(=O)n(CCC)c(=O)n2CCC [Compound 67, (E)-8-(3,4-Dimethoxystyryl)-7-propargyl-1,3-dipropylxanthine]",> 300
14,"CCCn1c(=O)c2c(nc(/C=C/c3ccc(OCOC)c(OCOC)c3)n2C)n(CCC)c1=O [Compound 68, (E)-8-[3,4-Bis(methoxymethoxy)styryl]-7-methyl-1,3-dipropylxanthine]",> 100
15,"C=CCn1c(=O)c2[nH]c(/C=C/c3ccc(OC)c(OC)c3)nc2n(CC=C)c1=O [Compound 69, (E)-1,3-Diallyl-8-(3,4-dimethoxystyryl)xanthine]",> 100
16,"CCCn1c(=O)c2[nH]c(/C=C/c3ccc(OC)c(OC)c3)nc2n(CCC)c1=S [Compound 71, (E)-8-(3,4-Dimethoxystyryl)-1,3-dipropyl-2-thioxanthine]",> 100

row,SMILES,MLD (minimum lethal dose) [mg/kg]
1,"CCCn1c(=O)c2c(nc(/C=C/c3ccc(OC)c(OC)c3)n2C)n(CCC)c1=S [Compound 72, (E)-8-(3,4-Dimethoxystyryl)-7-methyl-1,3-dipropyl-2-thioxanthine]",> 300
2,"CCn1c(=O)c2[nH]c(/C=C/c3ccc(OC)c(OC)c3)nc2n(CC)c1=O [Compound 73, (E)-8-(3,4-Dimethoxystyryl)-1,3-diethylxanthine]",> 300
3,"CCn1c(=O)c2[nH]c(/C=C/c3cccc(OC)c3OC)nc2n(CC)c1=O [Compound 75, (E)-8-(2,3-Dimethoxystyryl)-1,3-diethylxanthine]",> 300
4,"CCn1c(=O)c2c(nc(/C=C/c3cccc(OC)c3OC)n2C)n(CC)c1=O [Compound 76, (E)-8-(2,3-Dimethoxystyryl)-1,3-diethyl-7-methylxanthine]",> 300
5,"CCn1c(=O)c2[nH]c(/C=C/c3ccc(OC)cc3OC)nc2n(CC)c1=O [Compound 77, (E)-8-(2,4-Dimethoxystyryl)-1,3-diethylxanthine]",> 100
6,"CCn1c(=O)c2[nH]c(/C=C/c3ccc(OC)c(OC)c3OC)nc2n(CC)c1=O [Compound 79, (E)-1,3-Diethyl-8-(2,3,4-trimethoxystyryl)xanthine]",> 300
7,"CCn1c(=O)c2[nH]c(/C=C/c3ccc(OC)c(C)c3C)nc2n(CC)c1=O [Compound 81, (E)-1,3-Diethyl-8-(4-methoxy-2,3-dimethylstyryl)xanthine]",> 300
8,"CCn1c(=O)c2[nH]c(/C=C/c3cc(C)c(OC)cc3C)nc2n(CC)c1=O [Compound 83, (E)-1,3-Diethyl-8-(4-methoxy-2,5-dimethylstyryl)xanthine]",> 300
9,"CCn1c(=O)c2c(nc(/C=C/c3cc(C)c(OC)cc3C)n2C)n(CC)c1=O [Compound 84, (E)-1,3-Diethyl-8-(4-methoxy-2,5-dimethylstyryl)-7-methylxanthine]",> 300
10,"CCn1c(=O)c2[nH]c(/C=C/c3ccc(OC)c(C)c3OC)nc2n(CC)c1=O [Compound 85, (E)-8-(2,4-Dimethoxy-3-methylstyryl)-1,3-diethylxanthine]",> 300
11,"CCn1c(=O)c2c(nc(/C=C/c3ccc(OC)c(C)c3OC)n2C)n(CC)c1=O [Compound 86, (E)-8-(2,4-Dimethoxy-3-methylstyryl)-1,3-diethyl-7-methylxanthine]",> 300
12,"CCn1c(=O)c2[nH]c(/C=C/c3ccc4c(c3)OCO4)nc2n(CC)c1=O [Compound 87, (E)-1,3-Diethyl-8-(3,4-methylenedioxystyryl)xanthine]",> 300
13,"CCn1c(=O)c2c(nc(/C=C/c3ccc4c(c3)OCO4)n2C)n(CC)c1=O [Compound 88, (E)-1,3-Diethyl-7-methyl-8-(3,4-methylenedioxystyryl)xanthine]",> 300
14,"CCn1c(=O)c2[nH]c(/C=C/c3ccc4c(c3)OCCO4)nc2n(CC)c1=O [Compound 89, (E)-8-[2-(1,4-Benzodioxan-6-yl)vinyl]-1,3-diethylxanthine]",> 100
15,"CCn1c(=O)c2c(nc(/C=C/c3ccc4c(c3)OCCO4)n2C)n(CC)c1=O [Compound 90, (E)-8-[2-(1,4-Benzodioxan-6-yl)vinyl]-1,3-diethyl-7-methylxanthine]",> 300
16,"COc1ccc(/C=C/c2nc3c(=O)n(C)c(=O)n(C)c3[nH]2)c(OC)c1OC [Compound 91, (E)-8-(2,3,4-Trimethoxystyryl)theophylline]",> 300
